Patent US20220233556A1, “COMPOSITIONS AND METHODS FOR TREATING OPHTHALMIC CONDITIONS” (Medicon Pharmaceuticals, Inc., priority 2017, published 2022)
Read-outs that look alike come from different tables or passages of the source.

Legend:
Con A-induced dry eye = Con A-induced dry eye disease (DED) in rabbits: TBUT, tear osmolarity, STT, tear lactoferrin; format: in vivo, New Zealand White (NZW) rabbits
Procedure: Con A was injected under ultrasound guidance into all the lacrimal glands and the success of the injection was verified by a post-injection ultrasound image (see FIG. 1 and FIG. 2). […] This variation explains why the blind injections recommended in the original method are often unsuccessful. This was confirmed by mixing the Con A solution with methylene blue and tracking its course after injection. In about ⅓ of the cases, Con A ended up outside the gland.
Four parameters of efficacy were evaluated instead of the usual one or two. They include (a) the tear break up time (TBUT), determined using 0.2% fluorescein over the eye and recording the time taken to develop black dots, lines or obvious disruption of the fluorescein film; (b) tear osmolarity, measured using TearLab Osmolarity Test and following the manufacturer's instructions (TearLab Corp., San Diego, Calif.); (3) Schirmer tear test (STT), determined using Schirmer strips (EagleVision, Denville, N.J.) inserted between the cornea and the palpebral conjunctiva at the mid-point of the lower lid and measuring the length of moistened strip at 5 min; and (4) tear lactoferrin levels measured by ELISA kit (MyBiosource, San Diego, Calif.) following the instructions of the manufacturer. All four have been used in clinical practice and correlate with the clinical activity of the disease. The STT is the least reliable and, as result, it is clinically used less than half as frequently as TBUT.
The injections of Con A to the lacrimal glands were repeated weekly as needed. When longer than a 1-week periods of study are needed, repeat injections prolong dry eye for at least 3 weeks, making the originally acute model chronic.
PS Suppresses Con A—Induced Dry Eye in Rabbits. The effect of PS on dry eye was determined in New Zealand White (NZW) rabbits, 2-3 kg (Charles River Labs, Waltham, Mass.). These rabbits were housed singly in rooms with strict temperature (70±5° F.) and humidity (45±5%) control and acclimated for at least 2 weeks prior to induction of dry eye by injection of Con A as above. NZW rabbits with Con A-induced dry eye (three sets of injections) were treated with PS formulated as nanoparticles and administered topically as eye drops 3×/day for 21 days, starting on the day of Con A injection. […] Similar results were obtained on days 5 and 14 (data not shown). […]
The efficacy of lower concentrations of PS. The efficacy of lower concentrations of PS, 0.1% and 0.2% in DED, was also evaluated. The same animal model (rabbits with Concanavalin A-induced DED) was used. The same methodology described herein was followed, except that PS was administered as two eye drops per eye (˜25 μL each) four times a day. PS was formulated in: 10% (2-hydroxypropyl)-β-cyclodextrin, 4% Tween 80, 2.5% Vitamin E TPGS, 1.4% polyvinyl alcohol (13,000-26,000 molecular weight), 0.001% polyquad, as described herein. The Table below summarizes the corresponding findings: […]

[1] = test system: oxygen-induced retinopathy; assay: Mouse model of oxygen-induced retinopathy; format: in vivo, C57BL/6 mice; conditions: intravitreal 1 μl PS solution on P12, retina on P17, vs vehicle
Excerpt: Several animal models have been explored to understand retinal vascular development. The mouse model of oxygen-induced retinopathy is the most widely used, and has played a pivotal role in our understanding of retinal angiogenesis and in the development of therapeutics such as anti-vascular endothelial growth factor injections for wet age-related macular degeneration.
C57BL/6 mice were reared in 75±2% oxygen air starting on postnatal day 7 (P7) and moved into room air on P12, when they were injected intravitreally with 1 μl of […] PS solution or vehicle. The PS solution consisted of 4.0% PS, 20% Poloxamer 407 and 12% VETPGS (d-α-tocopheryl polyethylene glycol 1000 succinate). On P17, the pups were euthanized, both eyes were enucleated and fixed with 4% paraformaldehyde (PFA). Following several intermediate steps, the retina was existed and fixed further with 4% PFA overnight. After appropriate washings, the retina was incubated with 10 μg/ml of FITC-conjugated anti-lectin antibody overnight and retina flat-mounts were prepared on glass slides and evaluated by fluorescence microscopy. The areas of the avascular, neovascular and whole retina were determined using ImageJ software.

Staphylococcus aureus = assay: Disk diffusion method, antibiotic disks impregnated with PS; format: cell-based; conditions: PS 1-9% vs 0% PS
Procedure: It was assessed whether the combination of PS with antibiotics for their topical application to the eye affects the antimicrobial activity of the antibiotics. To this end, the disk diffusion method was used.
Briefly, Staphylococcus aureus grown in culture was seeded evenly on Muller-Hinton II Agar plates (BD Diagnostic Systems) at the standard concentration of 2×10^8 colony-forming units per mL. Antibiotic antimicrobial susceptibility disks (Thermo Scientific Oxoid™) were impregnated with one of six concentrations of PS (0%, 1%, 2%, 3%, 6%, 9%); 10 μL of each was evenly dispensed on each disk. An additional control was disks with no PS and no vehicle. The growth of bacteria around each disk was monitored and the area of “no growth” around each disk was measured 24 h later.

[2] = PS biodistribution after topical alternative gellan gum-based in-situ gel; format: in vivo, New Zealand white rabbits; conditions: New Zealand white, rabbit, alternative gellan gum 0.4% gel
Procedure: Composition: 2.4-3% PS; 0.4% Gellan gum; 10% Vitamin E TPGS; 5% (2-hydroxypropyl)-β-cyclodextrin.
Results: PS in this formulation was administered topically to the eyes of New Zealand white rabbits and its biodistribution was determined as above.

[3] = 1 week of treatment, comparison with ophthalmic NSAIDs (FIG. 5)
[4] = PS 0.1%, two eye drops four times a day, Baseline, mean ± SEM (n = 12)
[5] = PS 0.1%, two eye drops four times a day, Day 5, mean ± SEM (n = 12)
[6] = PS 0.2%, two eye drops four times a day, Baseline, mean ± SEM (n = 12)
[7] = PS 0.2%, two eye drops four times a day, Day 5, mean ± SEM (n = 12)
[8] = PS nanoparticles, eye drops 3x/day for 21 days
[9] = aqueous humor, read-out: PS in Aqueous humor
[10] = conjunctiva, read-out: PS in Conjunctiva

Question: With `CCOP(=O)(OCC)OCCCCOC(=O)CC1=C(C)/C(=C/c2ccc([S+](C)[O-])cc2)c2ccc(F)cc21` (stereo not drawn) [PS, phosphosulindac] as the molecule, how does the STT (Con A-induced dry eye; [3]) read?
Answer: no significant effect

Question: And the TBUT (Con A-induced dry eye; [3])?
Answer: normalized

Question: What about the osmolarity (Con A-induced dry eye; [3]) of the same molecule?
Answer: normalized

Question: And the STT (Con A-induced dry eye; [4])?
Answer: 16.4 ± 1.5 mm

Question: And the TBUT (Con A-induced dry eye; [4])?
Answer: 57.9 ± 1.5 s

Question: And the STT (Con A-induced dry eye; [5])?
Answer: 12.0 ± 0.8 mm

Question: What about the TBUT (Con A-induced dry eye; [5]) of the same molecule?
Answer: 45.4 ± 5.2 s

Question: And the STT (Con A-induced dry eye; [6])?
Answer: 15.9 ± 1.0 mm

Question: What about the TBUT (Con A-induced dry eye; [6]) of the same molecule?
Answer: 57.9 ± 2.1 s

Question: And the STT (Con A-induced dry eye; [7])?
Answer: 11.8 ± 0.9 mm

Question: And the TBUT (Con A-induced dry eye; [7])?
Answer: 45.7 ± 4.5 s

Question: And the TBUT (Con A-induced dry eye; [8])?
Answer: restored to normal

Question: What about the tear lactoferrin levels (Con A-induced dry eye; [8]) of the same molecule?
Answer: restored to normal

Question: And the tear osmolarity (Con A-induced dry eye; [8])?
Answer: restored to normal

Question: What about the STT value (Con A-induced dry eye; PS nanoparticles, eye drops 3x/day for 21 days, difference from vehicle significant only for trend) of the same molecule?
Answer: improved

Question: What about the “inhibition of peripheral neovascularization” value [1] of the same molecule?
Answer: 36%

Question: What about the “reduction of central avascular area” value [1] of the same molecule?
Answer: 51%

Question: What about the “effect of PS on the inhibition zone of each antibiotic” value (Staphylococcus aureus) of the same molecule?
Answer: did not appreciably change

Question: And the concentration at 0.5 h [2, 9]?
Answer: 600 nM

Question: What about the concentration at 1 h [2, 9] of the same molecule?
Answer: 400 nM

Question: What about the concentration at 0.5 h [2, 10] of the same molecule?
Answer: 37700 nM

Question: What about the concentration at 1 h [2, 10] of the same molecule?
Answer: 20800 nM

Question: And the concentration at 3 h [2, 10]?
Answer: 700 nM

Question: What about the concentration at 5 h [2, 10] of the same molecule?
Answer: 1100 nM

Question: And the concentration at 8 h [2, 10]?
Answer: 700 nM

Question: What about the concentration at 0.5 h ([2]; cornea, read-out: PS in Cornea) of the same molecule?
Answer: 24300 nM

Question: And the concentration at 1 h ([2]; cornea, read-out: PS in Cornea)?
Answer: 50800 nM

Question: What about the concentration at 3 h ([2]; cornea, read-out: PS in Cornea) of the same molecule?
Answer: 1500 nM

Question: And the concentration at 5 h ([2]; cornea, read-out: PS in Cornea)?
Answer: 1100 nM

Question: What about the concentration at 8 h ([2]; cornea, read-out: PS in Cornea) of the same molecule?
Answer: 1600 nM
